Assay results: US6380198B1 (Laboratoire Medidom S.A., priority 1997, dated 2002)
Where “and” joins values, the source holds several entries; their conditions need not be identical. Equal entries are not always repeated.

Tests used:
σ-1 receptors [1] = biological target: T1, σ-1 receptors (Oryctolagus cuniculus, UniProt G1SD54); assay: Inhibition of 3H(+)-N-allyl-nor-methazocine binding to irido-ciliary body membranes; parameters: species or system rabbit (New Zealand albino); conditions: rabbit irido-ciliary body P2 membranes, 300 μg protein, 37° C., 150 minutes, duplicate
T1 construct: cell membranes obtained from the irido-ciliary body complex; from tissue; host or cells: rabbit irido-ciliary body, P2 membrane fraction
Experimental: The receptor binding technique was carried out on cell membranes obtained from the irido-ciliary body complex explanted, after sacrifice, from male albino rabbits of the New Zealand strain (Charles River Italiana, of Calco (CO)). The tissue was homogenised in buffer and the P2, fraction, rich in cell membrane proteins, was isolated. […] The La total protein concentration was determined with the Lowry method.
The non specific binding was evaluated in presence of haloperidol.
All tests were carried out in duplicate. The reaction was maintained at 37° C. for 150 minutes, followed by filtration on WhatmannGF/B filters. The radioactivity left on the filters was measured by liquid scintillation spectrometry.

[2] = system: intraocular pressure of rabbits showing normal baseline intraocular pressure; assay: Intraocular pressure in rabbits with normal intraocular pressure after topical instillation; type: in vivo, rabbit (Vienna Blue, pigmented); conditions: Table 2, 50 μl eye-drops: 0.050% flunarizine, 0.5% timolol, or flunarizine/beta-blocker combinations
Experimental: The effects of the agent of the invention on the intraocular pressure of rabbits showing normal baseline intraocular pressure were evaluated in comparison with the action of a placebo, and with that of various other calcium channel blocking agents. Female pigmented rabbits of the Vienna Blue strain were used (supplied by Charles River Italiana, of Calco (CO)). The age of the animals at the time of starting the experimentation was 9 weeks, and their weight was 2.0-2.5 kg.
The choice of a species with pigmented iris is due to the fact that the latter represents a reliable model for the evaluation of possible modifications of the intraocular pressure caused by the products under test. The strain chosen is genetically defined, so as to limit to a minimum the variability of the biological characteristics between one animal and the other.
The animals were kept in rooms maintained under constant and controlled conditions of temperature and humidity, illuminated for 12 hours a day with artificial light and with continuous renovation of the air. The feed consisted of a standard diet having a constant and known composition, and both feed and water were available ad libitum during the whole period of the test. The rabbits were stabled for 21 days before starting the test, so as to allow a sufficient acclimatation and to suitably evaluate the health conditions of the rabbits. Each experimental group consisted of 4 animals, which were allotted to the treatment groups in a randomised way.
Each different group of animals received, by instillation in the right conjunctival fornix, 50 μl of the following products:
The weight concentrations of the various agents under test are chosen so as to correspond to the same molar concentration.
The pressure in the treated eye was measured by flattening tonometer (TonopenXL®, Mentor), 15 minutes before the instillation of the eyerops (time 0) and then 30, 60, 90, 120, 180 and 240 minutes after. As a local anaesthetic, 5 minutes before carrying out each measurement 25 μl of a commercial ophthalmic solution containing 0.4% oxybuprocaine hydrochloride (Novesine®, Sandoz) was instilled. To carry out the measurement the rabbits were placed in a suitably designed cage, that prevents any sudden movement of the animal under test.
For each animal and at each of the times listed above the average of three subsequent measurements was calculated and recorded, each one said measurements being made after 1 minute from the previous one. The intraocular pressure values at the various times were compared with the values obtained before the treatment, by means of the Student's “t” test. The comparisons between different groups were made by processing the data by the variance analysis (ANOVA) and, where possible, by the Student's “t” test for the comparison of two different experimental groups. Values of p<0.05 were considered to be statistically significant.

[3] = system: intraocular pressure of rabbits with ocular hypertension; assay: Intraocular pressure in rabbits with ocular hypertension induced by α-chymotrypsin; type: in vivo, rabbit (Vienna Blue, pigmented); conditions: Table 5, hypertensive rabbits, 50 μl eye-drops: 0.050% flunarizine, 0.5% timolol, or flunarizine/beta-blocker combinations
Experimental: Rabbits of the same type as those described in the previous section were used for the following tests.
In the rabbit, the injection of this enzyme in the posterior chamber causes, after one month from the administration, an effect of ocular hypertension.
At the end of the quarantine period the rabbits were anaesthetised by intramuscular administration of ketamine hydrochloride and xylazine hydrochloride (RBI). The right eye was gently pushed outwardly after instilling 25 μl of Novesine® eye-drops, containing oxybuprocaine as an anaesthetic; then, a sterile solution of σ-chymotrypsin (SIGMA, Milan; 150 units in 100 μl of physiologic sterile solution) was injected in the posterior chamber of the right eye by means of a 30G sterile needle. After the administration of the enzyme, the eye was thoroughly washed with physiologic sterile solution in order to remove any traces of α-chymotrypsin which could damage the ocular tissues. Then, 2 drops of a commercial ophthalmic antibiotic solution (Colbiocin®, SIFI S.p.A., containing chloramphenicol, rolitetracycline, colistin methanesulphonate) were instilled. The treatment was carried out 3 times a day (at 8.00 a.m., 12.00 a.m. and 6.00 p.m.) for one week after the administration of α-chymotrypsin. The rabbits were employed in the tests after one month from the induction of ocular hypertension by means of the enzyme.
The rabbits, divided also in this case in groups of 4 animals, were treated by instillation of 50 μl of the product under test in the right conjunctival fornix.
The intraocular pressure in the treated eye was measured, according to the same procedure as in the previous tests, 15 minutes before the instillation of the eye-drops and 30, 60, 90, 120, 180 and 240 minutes after. The values obtained were statistically analysed according to the criteria mentioned in the foregoing.
The experimental conditions were exactly the same as before.

σ-1 receptors [4] = biological target: T1, σ-1 receptors; assay: [3H](+)-pentazocine receptor binding and competitive binding on irido-ciliary body membranes; parameters: species or system rabbit (New Zealand albino); conditions: 300 μg membrane protein, 37° C., 150 minutes
Description: In order to identify the presence of a receptor sites in the eye the technique of “receptor binding” has been exploited. The latter has been carried out on cell membranes obtained from the irido-ciliary body complex. The irido-ciliary body complex had been explanted, after sacrifice, from male albino rabbits of the New Zealand strain. The tissue was homogenised in buffer and a fraction rich in cell membrane proteins was isolated, obtained by centrifugation. […] Aliquots of the said fraction of the homogenate containing 300 μg of total proteins were incubated with scalar amounts of [^3H](+)-pentazocine (which is used, for experimental purposes only, as a a ligand). The reaction was carried out at 37° C. for 150 minutes and then, after filtering, the radioactivity left on the filters was measured by liquid scintillation.

[5] = average ± S.D. of 4 rabbits, 30 min after instillation
[6] = average ± S.D. of 4 rabbits, 60 min after instillation
[7] = average ± S.D. of 4 rabbits, 90 min after instillation
[8] = average ± S.D. of 4 rabbits, 120 min after instillation
[9] = average ± S.D. of 4 rabbits, 180 min after instillation
[10] = average ± S.D. of 4 rabbits, 240 min after instillation
[11] = average ± S.D. of 4 rabbits, time 0 = 15 min before instillation (baseline)
[12] = individual rabbit, right eye, 30 min after instillation
[13] = individual rabbit, right eye, 60 min after instillation
[14] = individual rabbit, right eye, 90 min after instillation
[15] = individual rabbit, right eye, 120 min after instillation
[16] = individual rabbit, right eye, 180 min after instillation
[17] = individual rabbit, right eye, 240 min after instillation
[18] = individual rabbit, right eye, time 0 = 15 min before instillation (baseline)

T1 sequence (G1SD54 1-223): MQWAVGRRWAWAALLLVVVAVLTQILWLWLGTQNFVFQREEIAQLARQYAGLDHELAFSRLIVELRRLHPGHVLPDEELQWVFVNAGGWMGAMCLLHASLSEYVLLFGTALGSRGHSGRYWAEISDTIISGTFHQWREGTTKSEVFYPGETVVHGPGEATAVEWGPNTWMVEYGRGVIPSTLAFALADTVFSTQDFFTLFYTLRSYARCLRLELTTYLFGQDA

COCCOC(=O)C1=C(C)NC(C)=C(C(=O)OC(C)C)C1c1cccc([N+](=O)[O-])c1 (stereo not drawn) [nimodipine]
IC50 (σ-1 receptors [1]): > 10 µM

CC(C)(C)NC[C@H](O)COc1nsnc1N1CCOCC1 [timolol]
Intraocular pressure (mmHg) at the time (min): 30, average ± S.D. [2, 5]: 14.7 ± 0.5 mmHg | Intraocular pressure (mmHg) at the time (min): 60, average ± S.D. [2, 6]: 13.5 ± 0.6 mmHg | Intraocular pressure (mmHg) at the time (min): 90, average ± S.D. [2, 7]: 14.5 ± 0.6 mmHg | Intraocular pressure (mmHg) at the time (min): 120, average ± S.D. [2, 8]: 15.5 ± 0.6 mmHg | Intraocular pressure (mmHg) at the time (min): 180, average ± S.D. [2, 9]: 16.0 ± 0.6 mmHg | Intraocular pressure (mmHg) at the time (min): 240, average ± S.D. [2, 10]: 16.0 ± 0.8 mmHg | Intraocular pressure (mmHg) at the time (min): 0, average ± S.D. [2, 11]: 15.7 ± 0.5 mmHg | Intraocular pressure (mmHg) at the time (min): 30 [2, 12]: 15 mmHg (3×) and 14 mmHg | Intraocular pressure (mmHg) at the time (min): 60 [2, 13]: 14 mmHg (2×) and 13 mmHg (2×) | Intraocular pressure (mmHg) at the time (min): 90 [2, 14]: 14 mmHg (2×) and 15 mmHg (2×) | Intraocular pressure (mmHg) at the time (min): 120 [2, 15]: 15 mmHg (2×) and 16 mmHg (2×) | Intraocular pressure (mmHg) at the time (min): 180 [2, 16]: 16 mmHg (2×) and 17 mmHg and 15 mmHg | Intraocular pressure (mmHg) at the time (min): 240 [2, 17]: 16 mmHg (2×) and 17 mmHg and 15 mmHg | Intraocular pressure (mmHg) at the time (min): 0 [2, 18]: 16 mmHg (3×) and 15 mmHg | Intraocular pressure (mmHg) at the time (min): 30, average ± S.D. [3, 5]: 41.7 ± 4.7 mmHg | Intraocular pressure (mmHg) at the time (min): 60, average ± S.D. [3, 6]: 39.7 ± 2.9 mmHg | Intraocular pressure (mmHg) at the time (min): 90, average ± S.D. [3, 7]: 39.7 ± 2.6 mmHg | Intraocular pressure (mmHg) at the time (min): 120, average ± S.D. [3, 8]: 42.5 ± 3.5 mmHg | Intraocular pressure (mmHg) at the time (min): 180, average ± S.D. [3, 9]: 46.0 ± 4.9 mmHg | Intraocular pressure (mmHg) at the time (min): 240, average ± S.D. [3, 10]: 48.2 ± 4.4 mmHg | Intraocular pressure (mmHg) at the time (min): 0, average ± S.D. [3, 11]: 49.0 ± 5.3 mmHg | Intraocular pressure (mmHg) at the time (min): 30 [3, 12]: 43 mmHg and 45 mmHg and 39 mmHg and 40 mmHg | Intraocular pressure (mmHg) at the time (min): 60 [3, 13]: 42 mmHg (2×) and 39 mmHg and 36 mmHg | Intraocular pressure (mmHg) at the time (min): 90 [3, 14]: 42 mmHg (2×) and 38 mmHg and 37 mmHg | Intraocular pressure (mmHg) at the time (min): 120 [3, 15]: 46 mmHg and 45 mmHg and 39 mmHg and 40 mmHg | Intraocular pressure (mmHg) at the time (min): 180 [3, 16]: 52 mmHg and 48 mmHg and 42 mmHg (2×) | Intraocular pressure (mmHg) at the time (min): 240 [3, 17]: 53 mmHg and 51 mmHg and 45 mmHg and 44 mmHg | Intraocular pressure (mmHg) at the time (min): 0 [3, 18]: 53 mmHg and 54 mmHg and 46 mmHg and 43 mmHg

CC(C)=CCN1CC[C@]2(C)c3cc(O)ccc3C[C@H]1[C@H]2C [[^3H])(+)-pentazocine, [^3H](+)-pentazocine]
Binding to receptor sites of the iridociliary body region (σ-1 receptors [4]): selectively binds to receptor sites
